Experimental data as given in patent US20240092835A1, “NOVEL PEPTIDES CAPABLE OF ALTERING NK CELL ACTIVITY” (Massachusetts Institute of Technology, priority 2022, published 2024).

Key:
NKG2A−/NKG2C+ NK cells = experiment: NK cell activation markers in NKG2A-/NKG2C+ NK cells incubated with peptide and K562 expressing HLA-E (activation); format: cell-based, human; details: for percentage of CCL3+ NK cells / percentage of CD107+ NK cells / percentage of IFNG+ NK cells / percentage of TNF+ NK cells: NKG2A-/NKG2C+ NK cells, K562/HLA-E
How it was run: (§1)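 K562 + HLA-E, pulsed with human/CMV proteome peptides → incubated with sorted NK subsets → surface marker staining, % positive cells. Increase = activation; decrease = inhibition.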

NKG2A+/NKG2C− NK cells = experiment: NK cell activation markers in NKG2A+/NKG2C- NK cells incubated with peptide and K562 expressing HLA-E (inhibition); format: cell-based, human; details: for percentage of CCL3+ NK cells / percentage of CD107a+ NK cells / percentage of IFNG+ NK cells / percentage of TNF+ NK cells: NKG2A+/NKG2C- NK cells, K562/HLA-E
How it was run: as §1

HLA-E = target: T1, HLA-E (Homo sapiens, UniProt P13747); experiment: HLA-E surface stabilization assay with RMA-S/HLA-E cells; format: cell-based; details: 30 μM peptide, 16 hours; for HLA-E surface expression stability (GeoMFI): anti-HLA-E antibody
T1 construct: expressed in transfected cells; host or cells: RMA-S/HLA-E cells (antigen processing-defective lymphoma cell line)
Description: HLA-E surface expression was assessed by measuring geometric mean fluorescence intensity (GeoMFI) in RMA-S cells following immunofluorescence staining with an anti-HLA-E antibody (Table 14). Increased GeoMFI was indicative of increased HLA-E surface expression stability following novel peptide exposures (FIG. 3).

NKG2A−/NKG2C− NK cells = experiment: NK cell activation markers in control NKG2A-/NKG2C- NK cells incubated with peptide and K562 expressing HLA-E; format: cell-based, human
How it was run: as §1

[1] = K562 expressing HLA-E, CD107a, IFNG, TNF, CCL3

- HLA-E surface expression stability (GeoMFI) (HLA-E; Trial 1): 1174 GeoMFI
- HLA-E surface expression stability (GeoMFI) (HLA-E; Trial 2): 921 GeoMFI
- HLA-E surface expression stability (GeoMFI) (HLA-E; Trial 3): 887 GeoMFI
- HLA-E surface expression stability (GeoMFI) (HLA-E; Trial 4): 1378 GeoMFI
- HLA-E surface expression stabilization strength, approximate GeoMFI (HLA-E; approximate value): approximately 1×10^3 GeoMFI
Sequence: ILTDRSLWL [human4, peptide FBXO41 670-678 derived from the human proteome]
- effect on NKG2A−/NKG2C+ NK cell activation (in words) (NKG2A−/NKG2C+ NK cells; [1]): strong activating effects
- percentage of CCL3+ NK cells (NKG2A−/NKG2C+ NK cells; Trial 1): 77.9%
- percentage of CD107+ NK cells (NKG2A−/NKG2C+ NK cells; Trial 1): 76.7%
- percentage of IFNG+ NK cells (NKG2A−/NKG2C+ NK cells; Trial 1): 62.2%
- percentage of TNF+ NK cells (NKG2A−/NKG2C+ NK cells; Trial 1): 49.6%
- percentage of CCL3+ NK cells (NKG2A−/NKG2C+ NK cells; Trial 2): 87.9%
- percentage of CD107+ NK cells (NKG2A−/NKG2C+ NK cells; Trial 2): 79.5%
- percentage of IFNG+ NK cells (NKG2A−/NKG2C+ NK cells; Trial 2): 70.5%
- percentage of TNF+ NK cells (NKG2A−/NKG2C+ NK cells; Trial 2): 57.3%
- percentage of CCL3+ NK cells (NKG2A−/NKG2C+ NK cells; Trial 3): 84.4%
- percentage of CD107+ NK cells (NKG2A−/NKG2C+ NK cells; Trial 3): 84.8%
- percentage of IFNG+ NK cells (NKG2A−/NKG2C+ NK cells; Trial 3): 75.9%
- percentage of TNF+ NK cells (NKG2A−/NKG2C+ NK cells; Trial 3): 65.5%
- percentage of CCL3+ NK cells (NKG2A−/NKG2C+ NK cells; Trial 4): 74%
- percentage of CD107+ NK cells (NKG2A−/NKG2C+ NK cells; Trial 4): 73.4%
- percentage of IFNG+ NK cells (NKG2A−/NKG2C+ NK cells; Trial 4): 66.6%
- percentage of TNF+ NK cells (NKG2A−/NKG2C+ NK cells; Trial 4): 57.4%
- percentage of CCL3+ NK cells (NKG2A−/NKG2C+ NK cells; Trial 5): 81.2%
- percentage of CD107+ NK cells (NKG2A−/NKG2C+ NK cells; Trial 5): 77.9%
- percentage of IFNG+ NK cells (NKG2A−/NKG2C+ NK cells; Trial 5): 70.4%
- percentage of TNF+ NK cells (NKG2A−/NKG2C+ NK cells; Trial 5): 64.7%
- percentage of CCL3+ NK cells (NKG2A−/NKG2C+ NK cells; Trial 6): 64.6%
- percentage of CD107+ NK cells (NKG2A−/NKG2C+ NK cells; Trial 6): 64.2%
- percentage of IFNG+ NK cells (NKG2A−/NKG2C+ NK cells; Trial 6): 54%
- percentage of TNF+ NK cells (NKG2A−/NKG2C+ NK cells; Trial 6): 43%
- effect on NKG2A+/NKG2C− NK cell inhibition (in words) (NKG2A+/NKG2C− NK cells; [1]): mild inhibitory effects
- percentage of CCL3+ NK cells (NKG2A+/NKG2C− NK cells; Trial 1): 35.5%
- percentage of CD107a+ NK cells (NKG2A+/NKG2C− NK cells; Trial 1): 16.9%
- percentage of IFNG+ NK cells (NKG2A+/NKG2C− NK cells; Trial 1): 5.47%
- percentage of TNF+ NK cells (NKG2A+/NKG2C− NK cells; Trial 1): 1.97%
- percentage of CCL3+ NK cells (NKG2A+/NKG2C− NK cells; Trial 2): 56.4%
- percentage of CD107a+ NK cells (NKG2A+/NKG2C− NK cells; Trial 2): 23.7%
- percentage of IFNG+ NK cells (NKG2A+/NKG2C− NK cells; Trial 2): 8.81%
- percentage of TNF+ NK cells (NKG2A+/NKG2C− NK cells; Trial 2): 4.06%
- percentage of CCL3+ NK cells (NKG2A+/NKG2C− NK cells; Trial 3): 34.7%
- percentage of CD107a+ NK cells (NKG2A+/NKG2C− NK cells; Trial 3): 22%
- percentage of IFNG+ NK cells (NKG2A+/NKG2C− NK cells; Trial 3): 13.3%
- percentage of TNF+ NK cells (NKG2A+/NKG2C− NK cells; Trial 3): 7.29%
- percentage of CCL3+ NK cells (NKG2A+/NKG2C− NK cells; Trial 4): 16.1%
- percentage of CD107a+ NK cells (NKG2A+/NKG2C− NK cells; Trial 4): 15%
- percentage of IFNG+ NK cells (NKG2A+/NKG2C− NK cells; Trial 4): 3.31%
- percentage of TNF+ NK cells (NKG2A+/NKG2C− NK cells; Trial 4): 2.82%
- percentage of CCL3+ NK cells (NKG2A+/NKG2C− NK cells; Trial 5): 32.7%
- percentage of CD107a+ NK cells (NKG2A+/NKG2C− NK cells; Trial 5): 14.8%
- percentage of IFNG+ NK cells (NKG2A+/NKG2C− NK cells; Trial 5): 6.82%
- percentage of TNF+ NK cells (NKG2A+/NKG2C− NK cells; Trial 5): 3.39%
- percentage of CCL3+ NK cells (NKG2A+/NKG2C− NK cells; Trial 6): 13.4%
- percentage of CD107a+ NK cells (NKG2A+/NKG2C− NK cells; Trial 6): 12.8%
- percentage of IFNG+ NK cells (NKG2A+/NKG2C− NK cells; Trial 6): 3.02%
- percentage of TNF+ NK cells (NKG2A+/NKG2C− NK cells; Trial 6): 2.79%
- percentage CCL3+ NK cells (NKG2A−/NKG2C− NK cells; Trial 1): 37.2%
- percentage CD107+ NK cells (NKG2A−/NKG2C− NK cells; Trial 1): 27.2%
- percentage TNF+ NK cells (NKG2A−/NKG2C− NK cells; Trial 1): 3.99%
- percentage of IFNG+ NK cells (NKG2A−/NKG2C− NK cells; Trial 1): 15.4%
- percentage CCL3+ NK cells (NKG2A−/NKG2C− NK cells; Trial 2): 56.3%
- percentage CD107+ NK cells (NKG2A−/NKG2C− NK cells; Trial 2): 33.5%
- percentage TNF+ NK cells (NKG2A−/NKG2C− NK cells; Trial 2): 7.5%
- percentage of IFNG+ NK cells (NKG2A−/NKG2C− NK cells; Trial 2): 20.8%
- percentage CCL3+ NK cells (NKG2A−/NKG2C− NK cells; Trial 3): 48.3%
- percentage CD107+ NK cells (NKG2A−/NKG2C− NK cells; Trial 3): 44%
- percentage TNF+ NK cells (NKG2A−/NKG2C− NK cells; Trial 3): 13.8%
- percentage of IFNG+ NK cells (NKG2A−/NKG2C− NK cells; Trial 3): 33.7%
- percentage CCL3+ NK cells (NKG2A−/NKG2C− NK cells; Trial 4): 35.9%
- percentage CD107+ NK cells (NKG2A−/NKG2C− NK cells; Trial 4): 32.1%
- percentage TNF+ NK cells (NKG2A−/NKG2C− NK cells; Trial 4): 10.2%
- percentage of IFNG+ NK cells (NKG2A−/NKG2C− NK cells; Trial 4): 19.3%
- percentage CCL3+ NK cells (NKG2A−/NKG2C− NK cells; Trial 5): 25%
- percentage CD107+ NK cells (NKG2A−/NKG2C− NK cells; Trial 5): 19.2%
- percentage TNF+ NK cells (NKG2A−/NKG2C− NK cells; Trial 5): 5.02%
- percentage of IFNG+ NK cells (NKG2A−/NKG2C− NK cells; Trial 5): 13.7%
- percentage CCL3+ NK cells (NKG2A−/NKG2C− NK cells; Trial 6): 25.1%
- percentage CD107+ NK cells (NKG2A−/NKG2C− NK cells; Trial 6): 22.6%
- percentage TNF+ NK cells (NKG2A−/NKG2C− NK cells; Trial 6): 5.37%
- percentage of IFNG+ NK cells (NKG2A−/NKG2C− NK cells; Trial 6): 12.1%
